Test results published in patent US8101792B2, “Compounds isolated from Antrodia cinnamomea and use thereof” (Simpson Biotech Co., Ltd., priority 2007, dated 2012).
Read-outs that look alike come from different tables or passages of the source.

What was measured:
[1] = tested on: rat (RIB) or human (HIB) intestinal bacteria; experiment: Metabolism of Antrodin C and metabolites by intestinal bacteria in vitro; assay type: in vitro ADME
Method: Mixtures of rat (RIB) or human (HIB) intestinal bacteria (5 g each) prepared as described (Xie L H, et al. 2003 Biol Pharm Bull 51: 378-384), together with Antrodin C (5 mg) dissolved in Tween 20 (0.5 ml), M1 (5 mg) dissolved in water (1.0 ml) or rat bile samples (10 ml) with metabolites M2-M4, which were collected after oral administration of Antrodin C, were added to GAM broth (50 ml), and anaerobically incubated at 37° C. for 3 d. The incubation mixture was extracted with 3 volumes of acetonitrile, and then passed through a 0.45 μm filter. […] Moreover, the metabolites (M2-M4) in bile samples, which were collected after oral administration of Antrodin C in rats, could absolutely transferred to M1 after 30 min incubation.

[2] = Pharmacokinetics of M1 in rat bile after P.O. and I.V. administration of Antrodin C (PAD-HPLC); conditions: for Accumulated excretion ratio: rat bile
Method: (§1) Male Wistar rats (9 weeks old) purchased from SLC Co. (Hamamastu, Japan), were fed with standard laboratory chow for one week, fasted overnight and given free access to water before drug administration. […] The animals were light anesthetized with diethyl ether during surgical procedures. Bile samples (n=5) was collected by cannulating a polyethylene tube (PE-10) into the rat bile duct at intervals of 0, 0.25, 0.5, 1, 2, 4, 8, 12, 24, 36 and 48 h after oral (50 mg/kg) and intravenous (10 mg/kg) administration of Antrodin C. […] The blood samples were centrifuged at 8000×g for 15 min to separate the plasma, and then all samples were stored at −20° C. for later analysis.
(§2) Thawed urine and bile samples (0.5 ml) dissolved in 3 volumes of acetonitrile, and then centrifuged at 8000×g for 15 min. The supernatant was passed through a 0.45 μm Millipore syringe filter (Nihon Millipore, Tokyo, Japan) for LC/MS-MS analysis. […] After treating the bile sample as described above, the amount of M1 was calculated by PAD-HPLC.
(§3) The concentration-time data in rat bile (n=5) were computer fitted using a program of Pharmacokineitics 3p97 edited by the Mathematics Pharmacological Committee, Chinese Pharmacological Society. The following pharmacokinetic parameters were obtained: half-time of absorption phase (t1/2 (Kα)) and half-time of elimination phase (t1/2 (Kβ)) in the bile samples after oral administration of Antrodin C at the dose of 50 mg/kg. The area under the concentration-time curve (AUC(i.v.) and AUC(p.o.)) was calculated by the statistical moment method of non-compartmental pharmacokinetic analysis. And then clearance (Clm, b) and absolute bioavailability (Fm, b) were calculated by the equations as following: Clm, b (ml/h·kg)=Dose(i.v.)/AUC(i.v.) and Fm, b (%)=AUC(p.o.)·Dose(i.v.)/[AUC(i.v.)·Dose(p.o.)]. Data were expressed mean and standard deviation (S.D.) for each group.

[3] = tested on: hepatitis model induced by LPS; experiment: Hepatitis model induced by LPS; conditions: in vivo
[4] = Identification of metabolites in rat feces, bile, plasma and urine by LC/MS-MS after administration of Antrodin C; assay type: in vivo
Method: The metabolites in feces, bile and plasma were analyzed by LC/MS-MS. The LC/MS-MS equipment comprised a column containing TSK gel ODS-80 Ts (particle size, 5 μm; 4.6×150 mm i.d., Tosoh Co., Tokyo, Japan). Samples were eluted through the column with 0.1% AcOH and acetonitrile (35:65) at a flow rate of 1 ml/min at 30° C. The standard negative ion mode was selected under the following conditions: full scan range, 50-800 m/z; scan resolution, 13000 m/z/sec; nebulizer, 50.0 psi; dry gas, 10.0 l/min; dry temperature, 360° C. Full scanning in the region of m/z 50 to 600 assigned several peaks to Antrodin C and the metabolites in the […] when compared with those of blank samples (FIG. 3). […] Comparing to standard materials and synthesized compounds, the peak in the MS profile at m/z 328 [M-H]^− with retention time (tR)=8.2 min was derived from Antrodin C (MW 329), and M1 (m/z 331 [M-H]^−, tR=4.4 min) was dicarboxylic acid by hydrolysis of Antrodin C; M2 and M3 (m/z 345 [M-H]^−, tR=7.7 and 8.4 min), which were 14 larger than those of M1, were two kinds of monomethyl esters of M1; M4 (m/z 313 [M-H]^−, tR=21.6 min) was Antrodin A and M5 (m/z 312 [M-H]^−, tR=11.5 min) was Antrodin B. The structures of Antrodin C and its metabolites were shown in FIG. 5.

LLC cells = conditions: cited from earlier work
in vivo = conditions: male, Wistar, rat
Method: as §1, §2, §3

[5] = Conversion of metabolites in bile samples diluted with water and incubated at 37° C.; assay type: physicochemical; conditions: bile diluted by same volume water, 37° C. bath for 12 h
Method: as §2

CC(C)=CCOc1ccc(C2=C(CC(C)C)C(=O)N(O)C2=O)cc1 [Antrodin C]
Metabolism by intestinal bacteria [1]: converted to M5 | Accumulated excretion ratio ([2]; I.V. 10 mg/kg Antrodin C): 56.85±13.40 | Accumulated excretion ratio ([2]; P.O. 50 mg/kg Antrodin C): 5.46±1.62% | Main excretion pathway ([2]; rats): bile-feces pathway | Effect against hepatitis model induced by LPS [3]: protective effect | Metabolites found in feces ([4]; rat feces after administration of Antrodin C): M1-M3, M5 with original Antrodin C | Metabolites found in plasma ([4]; rat plasma after administration of Antrodin C): M1 with another unknown peak | Metabolites found in urine ([4]; rat urine after administration of Antrodin C): neither metabolite nor Antrodin C | Cytotoxic activity against LLC cells (LLC cells): confirmed

CC(C)=CCOc1ccc(/C(C(=O)O)=C(\CC(C)C)C(=O)O)cc1 [M1, (2Z)-2-isobutyl-3-{4-[(3-methylbut-2-en-1-yl)oxy]-phenyl}but-2-enedioic acid]
Metabolism by intestinal bacteria ([1]; GAM broth, anaerobic incubation at 37° C. for 3 d): not metabolized | bioavailability (in vivo): 19.4% | AUC (in vivo; iv, 10 mg/kg): 1680 µg·h/mL | clearance (in vivo; iv, 10 mg/kg): 5.96 mL/h/kg | AUC (in vivo; po, 50 mg/kg): 1610 µg·h/mL | half-life (in vivo; po, 50 mg/kg, t1/2 (kα), half-time of absorption phase): 0.95 h | half-life (in vivo; po, 50 mg/kg, t1/2 (kβ), half-time of elimination phase): 12.6 h

COC(=O)/C(=C(/CC(C)C)C(=O)O)c1ccc(OCC=C(C)C)cc1 [M2, (2Z)-2-isobutyl-3-{4-[(3-methylbut-2-en-1-yl)oxy]phenyl}but-2-enedioic acid 4-methyl ester]
Conversion in diluted bile [5]: thoroughly converted to M1

COC(=O)/C(CC(C)C)=C(\C(=O)O)c1ccc(OCC=C(C)C)cc1 [M3, (2Z)-2-isobutyl-3-{4-[(3-methylbut-2-en-1-yl)oxy]phenyl}but-2-enedioic acid 1-methyl ester]
Conversion in diluted bile [5]: thoroughly converted to M1

CC(C)=CCOc1ccc(C2=C(CC(C)C)C(=O)OC2=O)cc1 [M4, Antrodin A]
Conversion in diluted bile [5]: thoroughly converted to M1

CC(C)=CCOc1ccc(C2=C(CC(C)C)C(=O)NC2=O)cc1 [M5, Antrodin B]
Cytotoxic activity against LLC cells (LLC cells): confirmed
